Source: patent publication US20220227773A1, “FUSED RING COMPOUND, PREPARATION METHOD THEREFOR AND USE THEREOF” (SHANGHAI INSTITUTE OF MATERIA MEDICA, CHINESE ACADEMY OF …, priority 2019, published 2022)
Like-named read-outs stand apart in the source and are kept apart here.

Legend:
[1] = target: T1, hSERT (5-HTT) in HEK293-hSERT cells (Homo sapiens, UniProt P31645); assay: 5-HTT reuptake activity assay (fluorescence neurotransmitter transporter uptake kit); format: cell-based; settings: serotonin reuptake inhibition
T1 construct: expressed in transfected cells; host or cells: HEK293
T1 sequence (P31645 whole entry): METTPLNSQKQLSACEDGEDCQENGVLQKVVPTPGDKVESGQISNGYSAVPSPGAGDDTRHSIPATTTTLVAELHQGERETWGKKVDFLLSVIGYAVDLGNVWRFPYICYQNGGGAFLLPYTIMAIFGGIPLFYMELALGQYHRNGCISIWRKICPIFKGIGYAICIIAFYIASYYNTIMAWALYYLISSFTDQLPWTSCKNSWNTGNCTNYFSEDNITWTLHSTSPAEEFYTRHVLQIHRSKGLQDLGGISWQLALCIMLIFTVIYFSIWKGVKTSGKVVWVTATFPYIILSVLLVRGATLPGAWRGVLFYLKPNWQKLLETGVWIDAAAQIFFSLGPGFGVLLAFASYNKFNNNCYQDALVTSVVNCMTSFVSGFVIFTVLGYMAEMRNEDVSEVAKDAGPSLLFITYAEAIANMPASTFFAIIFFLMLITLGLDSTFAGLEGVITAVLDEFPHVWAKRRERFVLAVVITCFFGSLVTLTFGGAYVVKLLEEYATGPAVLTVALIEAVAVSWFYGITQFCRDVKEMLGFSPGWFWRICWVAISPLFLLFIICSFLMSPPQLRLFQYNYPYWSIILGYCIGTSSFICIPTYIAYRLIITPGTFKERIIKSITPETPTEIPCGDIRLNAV

[2] = target: T2, human recombinant 5-HT3 receptor (Homo sapiens, UniProt P46098); assay: 5-HT3 receptor affinity assay (3H-BRL 43694 radioligand binding); settings: read-out: inhibition (%) at 1 μM
T2 construct: expressed in transfected cells; host or cells: HEK293 (membrane preparation)
T2 sequence (P46098 24-478): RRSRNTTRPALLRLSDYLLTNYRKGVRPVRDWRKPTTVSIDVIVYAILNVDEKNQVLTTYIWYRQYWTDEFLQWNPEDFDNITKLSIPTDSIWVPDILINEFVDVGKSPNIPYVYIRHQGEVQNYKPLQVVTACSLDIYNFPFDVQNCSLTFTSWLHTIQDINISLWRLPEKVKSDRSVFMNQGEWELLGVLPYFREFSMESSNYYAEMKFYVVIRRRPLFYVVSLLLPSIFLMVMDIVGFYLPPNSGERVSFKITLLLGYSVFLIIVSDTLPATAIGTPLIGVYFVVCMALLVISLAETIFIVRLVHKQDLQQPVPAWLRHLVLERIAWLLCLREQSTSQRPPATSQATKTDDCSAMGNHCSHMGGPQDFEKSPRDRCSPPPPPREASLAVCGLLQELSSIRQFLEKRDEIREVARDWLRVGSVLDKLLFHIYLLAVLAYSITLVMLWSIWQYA

mice = assay: Forced swimming test (FST) in mice; format: in vivo; settings: Mus musculus
Procedure: 3. In Vivo Drug Efficacy Test (Mouse Forced Swimming Model)
Experimental animals: C57BL/6 mice (Shanghai Xipuer-Bikai Experimental Animal Co., Ltd.), male, 6 weeks old, weighing 15-20 g. ICR mice (Shanghai Xipuer-Bikai Experimental Animal Co., Ltd.), male, 6 weeks old, weighing 20-25 g. All the ordered mice were fed in a standard environment for 2-3 weeks before test.
Forced Swimming Test (FST): in the forced swimming apparatus, the water level is 45 cm, and the water temperature is 25° C. Before the experiment, the mice were placed in the experimental room for 1 h for adapting to the environment. At the beginning of the experiment, the mice were placed in the apparatus for 6min, and the whole process was recorded with a camera. When analyzing the data, only the immobility time of the mice in the last 4 min was counted, and the result was expressed by mean±SD.
The results were analyzed by one-way analysis of variance. […] FST: Forced swimming test; TST: Tail suspension test.

[3] = ip, read-out: Effective dose (mg/kg)
[4] = 1 μM compound, 0.5 nM 3H-BRL 43694, HEK293 membranes
[5] = po, read-out: Effective dose (mg/kg)

| SMILES | IC50 [1] | inhibition at 1 µM [2] | minimal effective dose (mice; [3]) | inhibition at 1 µM [2, 4] | minimal effective dose (mice; [5]) | minimal effective dose (mice; po, FST, dose significantly reducing immobility time of mice, read-out: Effective dose) |
| --- | --- | --- | --- | --- | --- | --- |
| O=C(O)/C=C\C(=O)O.c1cc(N2CC3CNCC3C2)c2sccc2c1 (stereo not drawn) [Example 10, 2-(Benzo[b]thiophen-7-yl)octahydropyrrolo[3,4-c]pyrrole maleate] | < 50 nM | 86% | 10 mg/kg | – | – | – |
| CN1CC2CN(c3cccc4ccsc34)CC2C1.O=C(O)C(=O)O (stereo not drawn) [Example 11, 2-(Benzo[b]thiophen-7-yl)-5-methyloctahydropyrrolo[3,4-c]pyrrole oxalate] | < 50 nM | – | 10 mg/kg | 86% | – | – |
| O=C(O)/C=C\C(=O)O.c1cc(N2CC3CNCC3C2)c2ccsc2c1 (stereo not drawn) [Example 12, 2-(Benzo[b]thiophen-4-yl)octahydropyrrolo[3,4-c]pyrrole maleate] | < 50 nM | 101% | 3 mg/kg | – | – | – |
| Br.CN1CC2CN(c3cccc4sccc34)CC2C1 (stereo not drawn) [Example 13, 2-(Benzo[b]thiophen-4-yl)-5-methyloctahydropyrrolo[3,4-c]pyrrole hydrobromide] | < 50 nM | 70% | 5 mg/kg | – | – | – |
| O=C(O)/C=C\C(=O)O.c1cc2cc(N3CC4CNCC4C3)ccc2s1 (stereo not drawn) [Example 14, 2-(Benzo[b]thiophen-5-yl)octahydropyrrolo[3,4-c]pyrrole maleate] | < 10 nM | 99% | 3 mg/kg | – | – | – |
| CN1CC2CN(c3ccc4sccc4c3)CC2C1.Cl (stereo not drawn) [Example 15, 2-(Benzo[b]thiophen-5-yl)-5-methyloctahydropyrrolo[3,4-c]pyrrole hydrochloride] | < 10 nM | – | – | 70% | 2.5 mg/kg | – |
| Clc1ccc(N2CC3CNCC3C2)cc1Cl (stereo not drawn) [Example 16, 2-(3,4-dichlorophenyl)octahydropyrrolo[3,4-c]pyrrole] | < 10 nM | – | 3 mg/kg | 96% | – | – |
| CN1CC2CN(c3ccc(Cl)c(Cl)c3)CC2C1 (stereo not drawn) [Example 17, 2-(3,4-dichlorophenyl)-5-methyloctahydropyrrolo[3,4-c]pyrrole] | < 10 nM | – | – | 93% | 5 mg/kg | – |
| Fc1c(N2CC3CNCC3C2)ccc2ccccc12.O=C(O)/C=C\C(=O)O (stereo not drawn) [Example 31, 2-(1-fluoronaphthalen-2-yl)octahydropyrrolo[3,4-c]pyrrole maleate] | < 10 nM | 101% | – | – | 20 mg/kg | – |
| CN1CC2CN(c3ccc4ccccc4c3F)CC2C1.O=C(O)/C=C\C(=O)O (stereo not drawn) [Example 32, 2-(1-fluoronaphthalen-2-yl)-5-methyloctahydropyrrolo[3,4-c]pyrrole maleate] | < 10 nM | 103% | – | – | – | 20 mg/kg |
| Clc1ccc(N2CCC3CNCC3CC2)cc1Cl (stereo not drawn) [Example 35, 6-(3,4-dichlorophenyl)decahydropyrrolo[3,4-d]azepine] | < 10 nM | – | – | 98% | 20 mg/kg | – |
| Clc1cccc(N2CCC3CNCC3CC2)c1Cl.O=C(O)/C=C\C(=O)O (stereo not drawn) [Example 37, 6-(2,3-dichlorophenyl)decahydropyrrolo[3,4-d]azepine maleate] | < 10 nM | 80% | 10 mg/kg | – | – | – |
| Cl.c1ccc2sc(C3CC4CNCC4C3)cc2c1 (stereo not drawn) [Example 50, 5-(benzothiophen-2-yl)octahydrocyclopenta[c]pyrrole hydrochloride] | < 200 nM | – | 10 mg/kg | 83% | – | – |
| Cl.c1ccc2cc(C3CC4CNCC4C3)ccc2c1 (stereo not drawn) [Example 55, 5-(naphthalen-2-yl)octahydrocyclopenta[c]pyrrole hydrochloride] | < 10 nM | – | – | 75% | 5 mg/kg | – |
